Test results: ChEMBL document CHEMBL4138123, “Design, synthesis and biological evaluation of novel pyrazolochalcones as potential modulators of PI3K/Akt/mTOR pathway and inducers of apoptosis in breast cancer cells” (Eur J Med Chem, 2017)

What was measured:
Type in all cases: functional
CCRF-CEM = test: Cytotoxicity against human CCRF-CEM cells assessed as growth inhibition after 48 hrs by sulforhodamine B assay
COLO 205 [1] = test: Cytotoxicity against human COLO205 cells assessed as growth inhibition after 48 hrs by sulforhodamine B assay; details: COLO 205, 48 h
LOX IMVI = test: Cytotoxicity against human LOXIMVI cells assessed as growth inhibition after 48 hrs by sulforhodamine B assay
M14 = test: Cytotoxicity against human M14 cells assessed as growth inhibition after 48 hrs by sulforhodamine B assay; details: M14, 48 h
MDA-MB-435 = test: Cytotoxicity against human MDA-MB-435 cells assessed as growth inhibition after 48 hrs by sulforhodamine B assay; details: MDA-MB-435, 48 h
OVCAR-3 = test: Cytotoxicity against human OVCAR3 cells assessed as growth inhibition after 48 hrs by sulforhodamine B assay; details: OVCAR-3, 48 h
PC-3 = test: Cytotoxicity against human PC3 cells assessed as growth inhibition after 48 hrs by sulforhodamine B assay; details: PC-3, 48 h
SK-MEL-28 = test: Cytotoxicity against human SK-MEL-28 cells assessed as cell growth at 0.01 uM after 48 hrs by sulforhodamine B assay relative to control; details: SK-MEL-28, 48 h, read-out: Activity
KM12 [2] = test: Cytotoxicity against human KM12 cells assessed as cell growth at 0.01 uM after 48 hrs by sulforhodamine B assay relative to control; details: KM12, 48 h, read-out: Activity
HT-29 = test: Cytotoxicity against human HT-29 cells assessed as cell growth at 0.01 uM after 48 hrs by sulforhodamine B assay relative to control; details: HT-29, 48 h, read-out: Activity
HCT-15 [3] = test: Cytotoxicity against human HCT15 cells assessed as cell growth at 0.01 uM after 48 hrs by sulforhodamine B assay relative to control; details: HCT-15, 48 h, read-out: Activity
HCC 2998 [4] = test: Cytotoxicity against human HCC2998 cells assessed as cell growth at 0.01 uM after 48 hrs by sulforhodamine B assay relative to control; details: HCC 2998, 48 h, read-out: Activity
TK-10 = test: Cytotoxicity against human TK10 cells assessed as cell growth at 0.01 uM after 48 hrs by sulforhodamine B assay relative to control; details: TK-10, 48 h, read-out: Activity
Hs-578T [5] = test: Cytotoxicity against human Hs 578T cells assessed as cell growth at 0.01 uM after 48 hrs by sulforhodamine B assay relative to control; details: read-out: Activity
MDA-MB-468 = test: Cytotoxicity against human MDA-MB-468 cells assessed as cell growth at 0.01 uM after 48 hrs by sulforhodamine B assay relative to control; details: MDA-MB-468, 48 h, read-out: Activity
SR = test: Cytotoxicity against human SR cells assessed as cell growth at 0.1 uM after 48 hrs by sulforhodamine B assay relative to control; details: read-out: Activity
COLO 205 [6] = test: Cytotoxicity against human COLO205 cells assessed as cell growth at 0.1 uM after 48 hrs by sulforhodamine B assay relative to control; details: COLO 205, 48 h, read-out: Activity
HCC 2998 [7] = test: Cytotoxicity against human HCC2998 cells assessed as cell growth at 0.1 uM after 48 hrs by sulforhodamine B assay relative to control; details: HCC 2998, 48 h, read-out: Activity
UACC-257 = test: Cytotoxicity against human UACC257 cells assessed as cell growth at 0.1 uM after 48 hrs by sulforhodamine B assay relative to control; details: UACC-257, 48 h, read-out: Activity
SK-OV-3 = test: Cytotoxicity against human SKOV3 cells assessed as cell growth at 0.1 uM after 48 hrs by sulforhodamine B assay relative to control; details: SK-OV-3, 48 h, read-out: Activity
SN12C = test: Cytotoxicity against human SN12C cells assessed as cell growth at 0.1 uM after 48 hrs by sulforhodamine B assay relative to control; details: read-out: Activity
UO-31 = test: Cytotoxicity against human UO31 cells assessed as cell growth at 0.1 uM after 48 hrs by sulforhodamine B assay relative to control; details: UO-31, 48 h, read-out: Activity
HOP-62 = test: Cytotoxicity against human HOP62 cells assessed as cell growth at 1 uM after 48 hrs by sulforhodamine B assay relative to control; details: HOP-62, 48 h, read-out: Activity
KM12 [8] = test: Cytotoxicity against human KM12 cells assessed as cell growth at 1 uM after 48 hrs by sulforhodamine B assay relative to control; details: KM12, 48 h, read-out: Activity
Hs-578T [9] = test: Cytotoxicity against human Hs 578T cells assessed as cell growth at 1 uM after 48 hrs by sulforhodamine B assay relative to control; details: read-out: Activity
COLO 205 [10] = test: Cytotoxicity against human COLO205 cells assessed as cell growth at 10 uM after 48 hrs by sulforhodamine B assay relative to control; details: COLO 205, 48 h, read-out: Activity
HCC 2998 [11] = test: Cytotoxicity against human HCC2998 cells assessed as cell growth at 10 uM after 48 hrs by sulforhodamine B assay relative to control; details: HCC 2998, 48 h, read-out: Activity
HCT-116 = test: Cytotoxicity against human HCT116 cells assessed as cell growth at 10 uM after 48 hrs by sulforhodamine B assay relative to control; details: HCT-116, 48 h, read-out: Activity
HCT-15 [12] = test: Cytotoxicity against human HCT15 cells assessed as cell growth at 10 uM after 48 hrs by sulforhodamine B assay relative to control; details: HCT-15, 48 h, read-out: Activity
SNB-19 = test: Cytotoxicity against human SNB19 cells assessed as cell growth at 10 uM after 48 hrs by sulforhodamine B assay relative to control; details: SNB-19, 48 h, read-out: Activity
OVCAR-5 = test: Cytotoxicity against human OVCAR5 cells assessed as cell growth at 10 uM after 48 hrs by sulforhodamine B assay relative to control; details: OVCAR-5, 48 h, read-out: Activity
OVCAR-8 = test: Cytotoxicity against human OVCAR8 cells assessed as cell growth at 10 uM after 48 hrs by sulforhodamine B assay relative to control; details: OVCAR-8, 48 h, read-out: Activity
MDA-MB-231 = test: Cytotoxicity against human MDA-MB-231 cells assessed as cell growth at 10 uM after 48 hrs by sulforhodamine B assay relative to control; details: MDA-MB-231, 48 h, read-out: Activity
A498 = test: Cytotoxicity against human A498 cells assessed as cell growth at 100 uM after 48 hrs by sulforhodamine B assay relative to control; details: A498, 48 h, read-out: Activity

COc1cc(C(=O)/C=C/c2cc(-c3cc(OC)c(OC)c(OC)c3)n[nH]2)cc(OC)c1OC
LC50 (concentration killing 50% of cells) (CCRF-CEM): > 100 µM | LC50 (COLO 205 [1]): 5.59 µM | TGI (COLO 205 [1]): 3.13 µM | LC50 (LOX IMVI): 5.57 µM | TGI (LOX IMVI): 2.91 µM | LC50 (concentration killing 50% of cells) (M14): 6.13 µM | TGI (M14): 3.32 µM | LC50 (MDA-MB-435): 5.82 µM | TGI (MDA-MB-435): 2.95 µM | LC50 (OVCAR-3): 5.79 µM | TGI (OVCAR-3): 3.18 µM | LC50 (PC-3): 7.36 µM | TGI (PC-3): 3.29 µM | growth at 0.01 µM (SK-MEL-28): 101% | growth at 0.01 µM (KM12 [2]): 101% | growth at 0.01 µM (HT-29): 95% | growth at 0.01 µM (HCT-15 [3]): 95% | growth at 0.01 µM (HCC 2998 [4]): 102% | growth at 0.01 µM (TK-10): 99% | growth at 0.01 µM (Hs-578T [5]): 93% | growth at 0.01 µM (MDA-MB-468): 90% | growth at 0.1 µM (SR): 93% | growth at 0.1 µM (COLO 205 [6]): 102% | growth at 0.1 µM (HCC 2998 [7]): 101% | growth at 0.1 µM (UACC-257): 91% | growth at 0.1 µM (SK-OV-3): 95% | growth at 0.1 µM (SN12C): 98% | growth at 0.1 µM (UO-31): 90% | growth at 1 µM (HOP-62): 78% | growth at 1 µM (KM12 [8]): 79% | growth at 1 µM (Hs-578T [9]): 80% | growth at 10 µM (COLO 205 [10]): -100% | growth at 10 µM (HCC 2998 [11]): -87% | growth at 10 µM (HCT-116): -99% | growth at 10 µM (HCT-15 [12]): -71% | growth at 10 µM (SNB-19): -62% | growth at 10 µM (OVCAR-5): -91% | growth at 10 µM (OVCAR-8): -76% | growth at 10 µM (MDA-MB-231): -53% | growth at 100 µM (A498): -98%

COc1cc(-c2cc(/C=C/C(=O)c3ccc(Cl)c(Cl)c3)[nH]n2)cc(OC)c1OC
LC50 (concentration killing 50% of cells) (CCRF-CEM): > 100 µM | TGI (CCRF-CEM): 23.5 µM | LC50 (COLO 205 [1]): > 100 µM | TGI (COLO 205 [1]): 15.8 µM | LC50 (LOX IMVI): 78.4 µM | TGI (LOX IMVI): 16.4 µM | LC50 (concentration killing 50% of cells) (M14): > 100 µM | TGI (M14): > 100 µM | LC50 (MDA-MB-435): > 100 µM | TGI (MDA-MB-435): > 100 µM | LC50 (OVCAR-3): > 100 µM | TGI (OVCAR-3): 37.8 µM | LC50 (PC-3): > 100 µM | TGI (PC-3): > 100 µM | growth at 0.01 µM (SK-MEL-28): 108% | growth at 0.01 µM (KM12 [2]): 96% | growth at 0.01 µM (HT-29): 100% | growth at 0.01 µM (HCT-15 [3]): 69% | growth at 0.01 µM (HCC 2998 [4]): 96% | growth at 0.01 µM (TK-10): 90% | growth at 0.01 µM (Hs-578T [5]): 98% | growth at 0.01 µM (MDA-MB-468): 94% | growth at 0.1 µM (SR): 89% | growth at 0.1 µM (COLO 205 [6]): 88% | growth at 0.1 µM (HCC 2998 [7]): 97% | growth at 0.1 µM (UACC-257): 96% | growth at 0.1 µM (SK-OV-3): 104% | growth at 0.1 µM (SN12C): 96% | growth at 0.1 µM (UO-31): 85% | growth at 1 µM (HOP-62): 68% | growth at 1 µM (KM12 [8]): 85% | growth at 1 µM (Hs-578T [9]): 104% | growth at 10 µM (COLO 205 [10]): 10% | growth at 10 µM (HCC 2998 [11]): 49% | growth at 10 µM (HCT-116): 16% | growth at 10 µM (HCT-15 [12]): 29% | growth at 10 µM (SNB-19): 50% | growth at 10 µM (OVCAR-5): 65% | growth at 10 µM (OVCAR-8): 40% | growth at 10 µM (MDA-MB-231): 47% | growth at 100 µM (A498): -25%

COc1cc(-c2cc(/C=C/C(=O)c3ccc(F)c(F)c3)[nH]n2)cc(OC)c1OC
LC50 (concentration killing 50% of cells) (CCRF-CEM): > 100 µM | TGI (CCRF-CEM): 47.2 µM | LC50 (COLO 205 [1]): 6 µM | TGI (COLO 205 [1]): 3.19 µM | LC50 (LOX IMVI): 41.5 µM | TGI (LOX IMVI): 12.2 µM | LC50 (concentration killing 50% of cells) (M14): > 100 µM | TGI (M14): 11.9 µM | LC50 (MDA-MB-435): > 100 µM | TGI (MDA-MB-435): 13.3 µM | LC50 (OVCAR-3): 43.6 µM | TGI (OVCAR-3): 6.25 µM | LC50 (PC-3): > 100 µM | TGI (PC-3): 5.72 µM | growth at 0.01 µM (SK-MEL-28): 102% | growth at 0.01 µM (KM12 [2]): 96% | growth at 0.01 µM (HT-29): 104% | growth at 0.01 µM (HCT-15 [3]): 97% | growth at 0.01 µM (HCC 2998 [4]): 83% | growth at 0.01 µM (TK-10): 82% | growth at 0.01 µM (Hs-578T [5]): 98% | growth at 0.01 µM (MDA-MB-468): 90% | growth at 0.1 µM (SR): 106% | growth at 0.1 µM (COLO 205 [6]): 98% | growth at 0.1 µM (HCC 2998 [7]): 92% | growth at 0.1 µM (UACC-257): 92% | growth at 0.1 µM (SK-OV-3): 99% | growth at 0.1 µM (SN12C): 94% | growth at 0.1 µM (UO-31): 86% | growth at 1 µM (HOP-62): 94% | growth at 1 µM (KM12 [8]): 95% | growth at 1 µM (Hs-578T [9]): 86% | growth at 10 µM (COLO 205 [10]): -90% | growth at 10 µM (HCC 2998 [11]): 13% | growth at 10 µM (HCT-116): 9% | growth at 10 µM (HCT-15 [12]): 9% | growth at 10 µM (SNB-19): 25% | growth at 10 µM (OVCAR-5): 27% | growth at 10 µM (OVCAR-8): 4% | growth at 10 µM (MDA-MB-231): -38% | growth at 100 µM (A498): -40%
